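Five compound concentrations were applied to cells in 96-well plates for 48 hours; endpoints were derived by simple linear interpolation of the resulting dose-response curve. Here, GI50 denotes the concentration required for 50% inhibition of growth.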 The source made the active and inactive calls. Rule as the data show it: active = GI50 up to about 1.1 µM and inactive = higher.
What was measured:
Assay in all cases: inhibition of tumour cell growth, NCI panel, 48 h
SNB-19 = tested on: SNB-19
SW-620 = tested on: SW-620
A498 = tested on: A498
SK-MEL-5 = tested on: SK-MEL-5
OVCAR-5 = tested on: OVCAR-5
TK-10 = tested on: TK-10
SNB-75 = tested on: SNB-75
NCI-H226 = tested on: NCI-H226
HL-60 = tested on: HL-60
M14 = tested on: M14
DU-145 = tested on: DU-145
IGROV-1 = tested on: IGROV-1
T47D = tested on: T47D
KM12 = tested on: KM12
SK-MEL-2 = tested on: SK-MEL-2
COLO 205 = tested on: COLO 205
HT-29 = tested on: HT-29
K562 = tested on: K562
A549 = tested on: A549
PC-3 = tested on: PC-3
MDA-N = tested on: MDA-N
SN12C = tested on: SN12C
NCI-H460 = tested on: NCI-H460
HOP-92 = tested on: HOP-92
SK-MEL-28 = tested on: SK-MEL-28
HCT-15 = tested on: HCT-15
UO-31 = tested on: UO-31
786-0 = tested on: 786-0
OVCAR-3 = tested on: OVCAR-3
SF-268 = tested on: SF-268
OVCAR-8 = tested on: OVCAR-8
NCI-H23 = tested on: NCI-H23
EKVX = tested on: EKVX
BT-549 = tested on: BT-549
MDA-MB-435 = tested on: MDA-MB-435
CCRF-CEM = tested on: CCRF-CEM
LOX IMVI = tested on: LOX IMVI
MDA-MB-231 = tested on: MDA-MB-231
SF-295 = tested on: SF-295
HOP-62 = tested on: HOP-62
ACHN = tested on: ACHN
RXF 393 = tested on: RXF 393
SK-OV-3 = tested on: SK-OV-3
UACC-62 = tested on: UACC-62
SF-539 = tested on: SF-539
OVCAR-4 = tested on: OVCAR-4
Hs-578T = tested on: Hs-578T
CAKI-1 = tested on: CAKI-1
SR = tested on: SR
MOLT-4 = tested on: MOLT-4
MCF7 = tested on: MCF7
HCC 2998 = tested on: HCC 2998
U-251 = tested on: U-251
NCI-H522 = tested on: NCI-H522
UACC-257 = tested on: UACC-257
HCT-116 = tested on: HCT-116
RPMI-8226 = tested on: RPMI-8226
NCI/ADR-RES = tested on: NCI/ADR-RES

`O=c1c2cc(I)ccc2nc(Sc2ncccc2[N+](=O)[O-])n1Cc1ccccc1` was tested, and the GI50 (SNB-19) was 45.9 µM (inactive), the GI50 (SW-620) was 33.1 µM (inactive) and the GI50 (A498) was 24.6 µM (inactive). For the same compound, the GI50 (SK-MEL-5) was 18.3 µM (inactive), the GI50 (OVCAR-5) was > 100 µM (inactive) and the GI50 (TK-10) was 37.2 µM (inactive). The GI50 (SNB-75) was 7.08 µM (inactive), the GI50 (NCI-H226) was 22.3 µM (inactive) and the GI50 (HL-60) was 0.122 µM (active). For the same compound, the GI50 (M14) was 28.3 µM (inactive), the GI50 (DU-145) was 22.5 µM (inactive) and the GI50 (IGROV-1) was 13.7 µM (inactive). For the same compound, the GI50 (T47D) was 26.3 µM (inactive), the GI50 (KM12) was 27.4 µM (inactive) and the GI50 (SK-MEL-2) was 7.38 µM (inactive). The GI50 (COLO 205) was 27.5 µM (inactive), the GI50 (HT-29) was 34.2 µM (inactive) and the GI50 (K562) was 38.5 µM (inactive). For the same compound, the GI50 (A549) was 28 µM (inactive), the GI50 (PC-3) was 26.5 µM (inactive) and the GI50 (MDA-N) was 20.4 µM (inactive). The GI50 (SN12C) was 20.6 µM (inactive), the GI50 (NCI-H460) was 29.4 µM (inactive) and the GI50 (HOP-92) was 5.33 µM (inactive). For the same compound, the GI50 (SK-MEL-28) was > 100 µM (inactive), the GI50 (HCT-15) was 19.3 µM and the GI50 (UO-31) was 14.3 µM (inactive). The GI50 (786-0) was 23.2 µM (inactive), the GI50 (OVCAR-3) was 22 µM (inactive) and the GI50 (SF-268) was 22.1 µM (inactive). The GI50 (OVCAR-8) was 31 µM (inactive), the GI50 (NCI-H23) was 24 µM (inactive) and the GI50 (EKVX) was 17.7 µM (inactive). For the same compound, the GI50 (BT-549) was 11.6 µM (inactive), the GI50 (MDA-MB-435) was 23.7 µM (inactive) and the GI50 (CCRF-CEM) was 0.249 µM (active). The GI50 (LOX IMVI) was 34.3 µM (inactive), the GI50 (MDA-MB-231) was 21.1 µM (inactive) and the GI50 (SF-295) was 60 µM (inactive). For the same compound, the GI50 (HOP-62) was 70 µM (inactive), the GI50 (ACHN) was 39.1 µM (inactive) and the GI50 (RXF 393) was 13.4 µM (inactive). The GI50 (SK-OV-3) was 63.1 µM (inactive), the GI50 (UACC-62) was 21.2 µM (inactive) and the GI50 (SF-539) was 32.2 µM (inactive). The GI50 (OVCAR-4) was 33.3 µM (inactive), the GI50 (Hs-578T) was 16.7 µM (inactive) and the GI50 (CAKI-1) was 25.8 µM (inactive). For the same compound, the GI50 (SR) was 7.08 µM (inactive), the GI50 (MOLT-4) was 23.2 µM (inactive) and the GI50 (MCF7) was 18.3 µM (inactive). The GI50 (HCC 2998) was 26.7 µM (inactive), the GI50 (U-251) was 35.2 µM (inactive) and the GI50 (NCI-H522) was 13.2 µM (inactive). For the same compound, the GI50 (UACC-257) was 23.2 µM (inactive), the GI50 (HCT-116) was 18.8 µM (inactive) and the GI50 (RPMI-8226) was 19.1 µM (inactive). For the same compound, the GI50 (NCI/ADR-RES) was 17.2 µM (inactive).

In the case of `CC(=O)Nc1cc2cc(NS(=O)(=O)c3ccc(Cl)c(Cl)c3)ccc2oc1=O`, the GI50 (SNB-19) is reported as 34.4 µM (inactive), the GI50 (SW-620) is reported as 50.7 µM (inactive) and the GI50 (A498) is reported as 20 µM (inactive). The GI50 (SK-MEL-5) was 28.1 µM (inactive), the GI50 (OVCAR-5) was > 100 µM (inactive) and the GI50 (TK-10) was 43.2 µM (inactive). For the same compound, the GI50 (NCI-H226) was 31.8 µM (inactive), the GI50 (HL-60) was 43.5 µM (inactive) and the GI50 (M14) was 64.1 µM (inactive). For the same compound, the GI50 (DU-145) was > 100 µM (inactive), the GI50 (IGROV-1) was 75.9 µM (inactive) and the GI50 (T47D) was 3.21 µM (inactive). For the same compound, the GI50 (KM12) was 25.1 µM (inactive), the GI50 (SK-MEL-2) was 20.3 µM (inactive) and the GI50 (COLO 205) was 25.5 µM (inactive). For the same compound, the GI50 (HT-29) was 35.3 µM (inactive), the GI50 (K562) was 56.5 µM (inactive) and the GI50 (A549) was 32.7 µM (inactive). For the same compound, the GI50 (PC-3) was 22.4 µM (inactive), the GI50 (MDA-N) was 51.8 µM (inactive) and the GI50 (SN12C) was 25.8 µM (inactive). The GI50 (NCI-H460) was 37.8 µM (inactive), the GI50 (HOP-92) was 20.8 µM (inactive) and the GI50 (SK-MEL-28) was 35 µM (inactive). The GI50 (HCT-15) was 90.6 µM, the GI50 (UO-31) was 46 µM (inactive) and the GI50 (786-0) was 17.4 µM (inactive). The GI50 (OVCAR-3) was > 100 µM (inactive), the GI50 (SF-268) was 26.2 µM (inactive) and the GI50 (OVCAR-8) was 17.8 µM (inactive). The GI50 (NCI-H23) was > 100 µM (inactive), the GI50 (EKVX) was 68.5 µM (inactive) and the GI50 (BT-549) was 49.1 µM (inactive). The GI50 (MDA-MB-435) was 36.1 µM (inactive), the GI50 (CCRF-CEM) was 53.8 µM (inactive) and the GI50 (LOX IMVI) was 20 µM (inactive). For the same compound, the GI50 (MDA-MB-231) was 17.2 µM (inactive), the GI50 (SF-295) was 19.6 µM (inactive) and the GI50 (HOP-62) was 19.8 µM (inactive). For the same compound, the GI50 (ACHN) was 42 µM (inactive), the GI50 (RXF 393) was 12.5 µM (inactive) and the GI50 (UACC-62) was 24.4 µM (inactive). For the same compound, the GI50 (SF-539) was 25.1 µM (inactive), the GI50 (OVCAR-4) was 30.3 µM (inactive) and the GI50 (Hs-578T) was 22.4 µM (inactive). The GI50 (CAKI-1) was 20 µM (inactive), the GI50 (SR) was 33.9 µM (inactive) and the GI50 (MOLT-4) was 27.4 µM (inactive). The GI50 (MCF7) was 21.2 µM (inactive), the GI50 (HCC 2998) was 40.5 µM (inactive) and the GI50 (U-251) was 22.6 µM (inactive). The GI50 (NCI-H522) was 23.4 µM (inactive), the GI50 (UACC-257) was > 100 µM (inactive) and the GI50 (HCT-116) was 28.2 µM (inactive). For the same compound, the GI50 (RPMI-8226) was 40.3 µM (inactive) and the GI50 (NCI/ADR-RES) was 34.2 µM (inactive).

With `COc1ccc(C2=CC(C(C)=C(C(N)=O)C(N)=O)C=C(c3ccc(Br)cc3)C2)c(OC)c1` (stereo unspecified) the GI50 (SNB-19) was > 100 µM (inactive), the GI50 (SW-620) was > 100 µM (inactive) and the GI50 (A498) was > 100 µM (inactive). For the same compound, the GI50 (SK-MEL-5) was > 100 µM (inactive), the GI50 (OVCAR-5) was > 100 µM (inactive) and the GI50 (TK-10) was > 100 µM (inactive). For the same compound, the GI50 (SNB-75) was 66.1 µM (inactive), the GI50 (NCI-H226) was > 100 µM (inactive) and the GI50 (HL-60) was > 100 µM (inactive). For the same compound, the GI50 (M14) was > 100 µM (inactive), the GI50 (DU-145) was > 100 µM (inactive) and the GI50 (IGROV-1) was 94.6 µM (inactive). The GI50 (T47D) was 39.1 µM (inactive), the GI50 (KM12) was > 100 µM (inactive) and the GI50 (SK-MEL-2) was > 100 µM (inactive). The GI50 (COLO 205) was > 100 µM (inactive), the GI50 (HT-29) was > 100 µM (inactive) and the GI50 (K562) was > 100 µM (inactive). The GI50 (A549) was > 100 µM (inactive), the GI50 (PC-3) was 50.5 µM (inactive) and the GI50 (MDA-N) was > 100 µM (inactive). The GI50 (SN12C) was > 100 µM (inactive), the GI50 (NCI-H460) was > 100 µM (inactive) and the GI50 (HOP-92) was 31.8 µM (inactive). For the same compound, the GI50 (SK-MEL-28) was > 100 µM (inactive), the GI50 (HCT-15) was greater than 100 µM and the GI50 (UO-31) was 39.9 µM (inactive). The GI50 (786-0) was > 100 µM (inactive), the GI50 (OVCAR-3) was > 100 µM (inactive) and the GI50 (SF-268) was > 100 µM (inactive). The GI50 (OVCAR-8) was > 100 µM (inactive), the GI50 (NCI-H23) was > 100 µM (inactive) and the GI50 (EKVX) was 44.2 µM (inactive). For the same compound, the GI50 (BT-549) was > 100 µM (inactive), the GI50 (MDA-MB-435) was > 100 µM (inactive) and the GI50 (CCRF-CEM) was > 100 µM (inactive). The GI50 (LOX IMVI) was > 100 µM (inactive), the GI50 (MDA-MB-231) was > 100 µM (inactive) and the GI50 (SF-295) was > 100 µM (inactive). For the same compound, the GI50 (HOP-62) was > 100 µM (inactive), the GI50 (ACHN) was > 100 µM (inactive) and the GI50 (RXF 393) was > 100 µM (inactive). For the same compound, the GI50 (SK-OV-3) was > 100 µM (inactive), the GI50 (UACC-62) was > 100 µM (inactive) and the GI50 (OVCAR-4) was > 100 µM (inactive). For the same compound, the GI50 (Hs-578T) was 63.1 µM (inactive), the GI50 (CAKI-1) was > 100 µM (inactive) and the GI50 (SR) was > 100 µM (inactive). The GI50 (MOLT-4) was > 100 µM (inactive), the GI50 (MCF7) was > 100 µM (inactive) and the GI50 (HCC 2998) was > 100 µM (inactive). The GI50 (U-251) was > 100 µM (inactive), the GI50 (NCI-H522) was > 100 µM (inactive) and the GI50 (UACC-257) was > 100 µM (inactive). For the same compound, the GI50 (HCT-116) was > 100 µM (inactive), the GI50 (RPMI-8226) was > 100 µM (inactive) and the GI50 (NCI/ADR-RES) was > 100 µM (inactive).

Reference: ChEMBL document CHEMBL1201862, “PubChem BioAssay data set” (2004)
